# Data: ChEMBL document CHEMBL3526069, “Human pharmacokinetic prediction of UDP-glucuronosyltransferase substrates with an animal scale-up approach” (Drug Metab Dispos, 2011)
# Tested on: not listed separately
# Assay: Plasma clearance in human
# Conditions: plasma
row,clearance [mL/min/kg],SMILES
1,14.7,O=C(c1ccc(OCCN2CCCCC2)cc1)c1c(-c2ccc(O)cc2)sc2cc(O)ccc12 [RALOXIFENE]

# Tested on: not listed separately
# Assay: Plasma clearance in po dosed human
# Conditions: plasma
row,CL/F [mL/min/kg],SMILES
1,17.8,CCCc1nc2c(C)cc(-c3nc4ccccc4n3C)cc2n1Cc1ccc(-c2ccccc2C(=O)O)cc1
2,33.3,Cc1cn([C@H]2C[C@H](N=[N+]=[N-])[C@@H](CO)O2)c(=O)[nH]c1=O [ZIDOVUDINE]

# Tested on: not listed separately
# Assay: Drug metabolism in bile duct-cannulated rat assessed as glucuronide concentration in bile and urine at 0.2 mg/kg, iv up to 24 hrs by LC/MS/MS analysis
# Assay type: ADME, organism-based
# Design: dose 0.2 mg/kg, route intravenous
# Conditions: in vivo
row,SMILES,Fm
1,CCCc1nc2c(C)cc(-c3nc4ccccc4n3C)cc2n1Cc1ccc(-c2ccccc2C(=O)O)cc1,0.396
2,NS(=O)(=O)c1cc(C(=O)O)c(NCc2ccco2)cc1Cl [FUROSEMIDE],0.052
3,CN(C)CCCN1c2ccccc2CCc2ccccc21.Cl [IMIPRAMINE HYDROCHLORIDE],0.014

# The remaining lines, values ahead:
row,Fm,SMILES
1,0.214,O=C(c1ccc(OCCN2CCCCC2)cc1)c1c(-c2ccc(O)cc2)sc2cc(O)ccc12 [RALOXIFENE]
2,0.02,Cc1cn([C@H]2C[C@H](N=[N+]=[N-])[C@@H](CO)O2)c(=O)[nH]c1=O [ZIDOVUDINE]

# Tested on: not listed separately
# Assay: Drug metabolism in gallbladder-cannulated mouse assessed as glucuronide concentration in bile and urine at 0.2 mg/kg, iv up to 24 hrs by LC/MS/MS analysis
# Assay type: ADME, organism-based
# Design: dose 0.2 mg/kg, route intravenous
# Conditions: in vivo
row,SMILES,Fm
1,CCCc1nc2c(C)cc(-c3nc4ccccc4n3C)cc2n1Cc1ccc(-c2ccccc2C(=O)O)cc1,0.118
2,NS(=O)(=O)c1cc(C(=O)O)c(NCc2ccco2)cc1Cl [FUROSEMIDE],0.005

# Further lines, results first:
row,Fm,SMILES
1,0.01,CC(C(=O)O)c1cccc(C(=O)c2ccccc2)c1 (stereo unspecified) [KETOPROFEN]
2,0.243,O=C(c1ccc(OCCN2CCCCC2)cc1)c1c(-c2ccc(O)cc2)sc2cc(O)ccc12 [RALOXIFENE]
3,0.034,Cc1cn([C@H]2C[C@H](N=[N+]=[N-])[C@@H](CO)O2)c(=O)[nH]c1=O [ZIDOVUDINE]

# Tested on: not listed separately
# Assay: Drug metabolism in bile duct-cannulated dog assessed as glucuronide concentration in bile and urine at 0.2 mg/kg, iv up to 24 hrs by LC/MS/MS analysis
# Assay type: ADME, organism-based, Canis lupus familiaris
# Design: dose 0.2 mg/kg, route intravenous
# Conditions: in vivo
row,SMILES,Fm
1,CCCc1nc2c(C)cc(-c3nc4ccccc4n3C)cc2n1Cc1ccc(-c2ccccc2C(=O)O)cc1,0.99
2,NS(=O)(=O)c1cc(C(=O)O)c(NCc2ccco2)cc1Cl [FUROSEMIDE],0.17
3,CN(C)CCCN1c2ccccc2CCc2ccccc21.Cl [IMIPRAMINE HYDROCHLORIDE],0.005

# Now from value to compound:
row,Fm,SMILES
1,0.163,CC(C(=O)O)c1cccc(C(=O)c2ccccc2)c1 (stereo unspecified) [KETOPROFEN]
2,0.196,O=C(c1ccc(OCCN2CCCCC2)cc1)c1c(-c2ccc(O)cc2)sc2cc(O)ccc12 [RALOXIFENE]
3,0.134,Cc1cn([C@H]2C[C@H](N=[N+]=[N-])[C@@H](CO)O2)c(=O)[nH]c1=O [ZIDOVUDINE]

# Tested on: Plasma
# Assay: not given
# Conditions: rat
row,Fu,SMILES
1,0.004,O=C(c1ccc(OCCN2CCCCC2)cc1)c1c(-c2ccc(O)cc2)sc2cc(O)ccc12 [RALOXIFENE]

# Species on record: Homo sapiens
# Assay: not given
# Conditions: in vivo
row,Vdss [L/kg],SMILES
1,47,O=C(c1ccc(OCCN2CCCCC2)cc1)c1c(-c2ccc(O)cc2)sc2cc(O)ccc12 [RALOXIFENE]

# Species on record: Homo sapiens
# Assay: not given
# Conditions: in vivo
# Remark: another data set of the same source
row,t1/2 [h],SMILES
1,36.9,O=C(c1ccc(OCCN2CCCCC2)cc1)c1c(-c2ccc(O)cc2)sc2cc(O)ccc12 [RALOXIFENE]

# Tested on: not listed separately
# Assay: in vitro
# Conditions: mouse, plasma
# Description: Fraction unbound in mouse plasma by ultracentrifugation method
row,SMILES,fraction unbound
1,CCCc1nc2c(C)cc(-c3nc4ccccc4n3C)cc2n1Cc1ccc(-c2ccccc2C(=O)O)cc1,0.071
2,CN(C)CCCN1c2ccccc2CCc2ccccc21.Cl [IMIPRAMINE HYDROCHLORIDE],0.063

# Now from value to compound:
row,fraction unbound,SMILES
1,0.006,O=C(c1ccc(OCCN2CCCCC2)cc1)c1c(-c2ccc(O)cc2)sc2cc(O)ccc12 [RALOXIFENE]
2,0.896,Cc1cn([C@H]2C[C@H](N=[N+]=[N-])[C@@H](CO)O2)c(=O)[nH]c1=O [ZIDOVUDINE]

# Tested on: not listed separately
# Assay: in vitro
# Conditions: rat, plasma
# Description: Fraction unbound in rat plasma by ultracentrifugation method
row,fraction unbound,SMILES
1,0.007,CCCc1nc2c(C)cc(-c3nc4ccccc4n3C)cc2n1Cc1ccc(-c2ccccc2C(=O)O)cc1
2,0.734,Cc1cn([C@H]2C[C@H](N=[N+]=[N-])[C@@H](CO)O2)c(=O)[nH]c1=O [ZIDOVUDINE]

# Tested on: not listed separately
# Assay: in vitro
# Conditions: rhesus monkey, plasma
# Description: Fraction unbound in monkey plasma by ultracentrifugation method
row,fraction unbound,SMILES
1,0.008,CCCc1nc2c(C)cc(-c3nc4ccccc4n3C)cc2n1Cc1ccc(-c2ccccc2C(=O)O)cc1
2,0.03,CN(C)CCCN1c2ccccc2CCc2ccccc21.Cl [IMIPRAMINE HYDROCHLORIDE]
3,0.004,O=C(c1ccc(OCCN2CCCCC2)cc1)c1c(-c2ccc(O)cc2)sc2cc(O)ccc12 [RALOXIFENE]

# Tested on: not listed separately
# Assay: in vitro
# Conditions: dog, plasma
# Description: Fraction unbound in dog plasma by ultracentrifugation method
row,fraction unbound,SMILES
1,0.018,CCCc1nc2c(C)cc(-c3nc4ccccc4n3C)cc2n1Cc1ccc(-c2ccccc2C(=O)O)cc1
2,0.003,O=C(c1ccc(OCCN2CCCCC2)cc1)c1c(-c2ccc(O)cc2)sc2cc(O)ccc12 [RALOXIFENE]
3,0.827,Cc1cn([C@H]2C[C@H](N=[N+]=[N-])[C@@H](CO)O2)c(=O)[nH]c1=O [ZIDOVUDINE]

# Tested on: not listed separately
# Assay: in vitro
# Conditions: human, plasma
# Description: Fraction unbound in human plasma by ultracentrifugation method
row,SMILES,fraction unbound
1,CCCc1nc2c(C)cc(-c3nc4ccccc4n3C)cc2n1Cc1ccc(-c2ccccc2C(=O)O)cc1,0.003
2,CN(C)CCCN1c2ccccc2CCc2ccccc21.Cl [IMIPRAMINE HYDROCHLORIDE],0.104

# The next lines start with the values.
row,fraction unbound,SMILES
1,0.002,O=C(c1ccc(OCCN2CCCCC2)cc1)c1c(-c2ccc(O)cc2)sc2cc(O)ccc12 [RALOXIFENE]
2,0.695,Cc1cn([C@H]2C[C@H](N=[N+]=[N-])[C@@H](CO)O2)c(=O)[nH]c1=O [ZIDOVUDINE]

# Tested on: not listed separately
# Assay: in vitro
# Conditions: mouse
# Description: Ratio of drug level in blood to plasma in mouse
row,blood plasma ratio,SMILES
1,0.54,CCCc1nc2c(C)cc(-c3nc4ccccc4n3C)cc2n1Cc1ccc(-c2ccccc2C(=O)O)cc1

# Tested on: not listed separately
# Assay: in vitro
# Conditions: rat
# Description: Ratio of drug level in blood to plasma in rat
row,blood plasma ratio,SMILES
1,1.25,CCCc1nc2c(C)cc(-c3nc4ccccc4n3C)cc2n1Cc1ccc(-c2ccccc2C(=O)O)cc1

# Tested on: not listed separately
# Assay: in vitro
# Conditions: rhesus monkey
# Description: Ratio of drug level in blood to plasma in monkey
row,blood plasma ratio,SMILES
1,1.16,CCCc1nc2c(C)cc(-c3nc4ccccc4n3C)cc2n1Cc1ccc(-c2ccccc2C(=O)O)cc1

# Tested on: not listed separately
# Assay: in vitro
# Conditions: dog
# Description: Ratio of drug level in blood to plasma in dog
row,blood plasma ratio,SMILES
1,1.18,CCCc1nc2c(C)cc(-c3nc4ccccc4n3C)cc2n1Cc1ccc(-c2ccccc2C(=O)O)cc1

# Tested on: not listed separately
# Assay: in vitro
# Conditions: human
# Description: Ratio of drug level in blood to plasma in human
row,blood plasma ratio,SMILES
1,1.24,CCCc1nc2c(C)cc(-c3nc4ccccc4n3C)cc2n1Cc1ccc(-c2ccccc2C(=O)O)cc1

# Tested on: not listed separately
# Assay: clinical
# Conditions: human, in vivo
# Description: Volume of distribution at steady state in human
row,Vd [L/kg],SMILES
1,12,CN(C)CCCN1c2ccccc2CCc2ccccc21.Cl [IMIPRAMINE HYDROCHLORIDE]

# Tested on: not listed separately
# Assay: clinical
# Conditions: human, in vivo
# Remark: another data set of the same source
row,half-life [h],SMILES
1,7.29,CCCc1nc2c(C)cc(-c3nc4ccccc4n3C)cc2n1Cc1ccc(-c2ccccc2C(=O)O)cc1
2,10.7,CN(C)CCCN1c2ccccc2CCc2ccccc21.Cl [IMIPRAMINE HYDROCHLORIDE]
3,0.832,Cc1cn([C@H]2C[C@H](N=[N+]=[N-])[C@@H](CO)O2)c(=O)[nH]c1=O [ZIDOVUDINE]

# Tested on: not listed separately
# Assay: Drug metabolism in human assessed as glucuronide concentration in urine
# Conditions: not given
row,SMILES,Fm
1,NS(=O)(=O)c1cc(C(=O)O)c(NCc2ccco2)cc1Cl [FUROSEMIDE],0.14
2,CN(C)CCCN1c2ccccc2CCc2ccccc21.Cl [IMIPRAMINE HYDROCHLORIDE],0.1

# Next, values leading:
row,Fm,SMILES
1,0.9,O=C(c1ccc(OCCN2CCCCC2)cc1)c1c(-c2ccc(O)cc2)sc2cc(O)ccc12 [RALOXIFENE]
2,0.85,Cc1cn([C@H]2C[C@H](N=[N+]=[N-])[C@@H](CO)O2)c(=O)[nH]c1=O [ZIDOVUDINE]

# Tested on: not listed separately
# Assay: Drug metabolism in bile duct-cannulated cynomolgus monkey assessed as glucuronide concentration in bile and urine at 0.2 mg/kg, iv up to 24 hrs by LC/MS/MS analysis
# Conditions: in vivo
row,SMILES,Fm
1,CCCc1nc2c(C)cc(-c3nc4ccccc4n3C)cc2n1Cc1ccc(-c2ccccc2C(=O)O)cc1,0.47
2,NS(=O)(=O)c1cc(C(=O)O)c(NCc2ccco2)cc1Cl [FUROSEMIDE],0.671
3,CN(C)CCCN1c2ccccc2CCc2ccccc21.Cl [IMIPRAMINE HYDROCHLORIDE],0.04

# Second part, the compound after the results:
row,Fm,SMILES
1,0.38,O=C(c1ccc(OCCN2CCCCC2)cc1)c1c(-c2ccc(O)cc2)sc2cc(O)ccc12 [RALOXIFENE]
2,0.08,Cc1cn([C@H]2C[C@H](N=[N+]=[N-])[C@@H](CO)O2)c(=O)[nH]c1=O [ZIDOVUDINE]
